ChEMBL document CHEMBL1201862, “PubChem BioAssay data set” (2004)
Activity calls are given as the source filed them.

Columns and labels:
Fatty acid synthase [1] = target: T1, Fatty acid synthase (Homo sapiens, UniProt P49327); test: inhibition of human FAS-TE enzyme activity – biochemical, endpoint fluorescence intensity, uHTS hits, dose response (AID 624327); type: functional;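 also: fluorescence from hydrolysis of an O-methyl fluorescein acyl ester substrate by the enzyme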
Fatty acid synthase [2] = target: T1, Fatty acid synthase; test: inhibition of human FAS-TE enzyme activity – biochemical, kinetic fluorescence intensity, dose response (AID 624326); type: functional;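 also: rate of fluorescence rise from hydrolysis of a fluorogenic O-methyl fluorescein ester substrate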
[3] = target: T2, RNA-binding protein pos-1 (Caenorhabditis elegans, UniProt G5EF15); test: disruptors of C. elegans POS-1 RNA interaction – biochemical, fluorescence polarization, dose response (AID 1964);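 also: purified POS-1 fused to maltose binding protein made in E. coli; potency of compounds blocking POS-1 binding to fluorescent RNA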
T2 sequence (G5EF15 whole entry): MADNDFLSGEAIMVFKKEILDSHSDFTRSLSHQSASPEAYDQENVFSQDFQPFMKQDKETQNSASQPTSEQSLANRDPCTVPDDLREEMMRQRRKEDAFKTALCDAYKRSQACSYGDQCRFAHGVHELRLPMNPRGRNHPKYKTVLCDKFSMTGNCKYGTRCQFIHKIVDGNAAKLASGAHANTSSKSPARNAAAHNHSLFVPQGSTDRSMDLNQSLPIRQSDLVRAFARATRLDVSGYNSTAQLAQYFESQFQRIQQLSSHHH

[4] = target: T3, Zinc finger protein mex-5 (Caenorhabditis elegans, UniProt Q9XUB2); test: potency of MEX-5 RNA-binding blockers – biochemical, C. elegans, fluorescence polarization, dose response (AID 1960)
T3 sequence (Q9XUB2 whole entry): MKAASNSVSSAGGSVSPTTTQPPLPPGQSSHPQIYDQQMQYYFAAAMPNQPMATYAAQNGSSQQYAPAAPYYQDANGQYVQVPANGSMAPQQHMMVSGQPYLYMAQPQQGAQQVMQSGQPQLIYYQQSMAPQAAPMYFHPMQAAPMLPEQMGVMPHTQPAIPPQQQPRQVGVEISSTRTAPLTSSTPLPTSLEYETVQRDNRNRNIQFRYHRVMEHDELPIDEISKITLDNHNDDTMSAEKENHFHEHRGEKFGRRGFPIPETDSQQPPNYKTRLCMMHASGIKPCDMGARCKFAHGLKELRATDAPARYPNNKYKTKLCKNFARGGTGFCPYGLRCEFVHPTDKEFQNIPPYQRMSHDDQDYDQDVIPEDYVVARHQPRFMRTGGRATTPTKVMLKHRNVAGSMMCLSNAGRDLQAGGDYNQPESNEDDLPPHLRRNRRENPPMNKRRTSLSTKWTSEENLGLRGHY

[5] = microbe, parasite or virus in culture; type: functional; conditions: Mycobacterium tuberculosis
[6] = Trypanosoma cruzi growth suppression in host cells – NIH3T3 host cells, beta-gal luminescence, confirmation (AID 2044); type: functional, cell-based;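 also: intracellular parasites grown in NIH/3T3 mouse fibroblasts as host cells; luminescent beta-galactosidase reporter signal from transgenic T. cruzi replicating inside host cells; inhibitors lower the luminescence signal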
[7] = viability of PTEN-deleted HCT116 cells – cell-based, HCT116 PTEN knockout, dose response (AID 1047); type: functional;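 also: HCT116 colon tumor cells with PTEN knocked out; cells exposed to compound for 60 hours before readout; potency for loss of cell viability measured by luminescence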
[8] = NIH3T3 cell viability loss – ATP luminescence, mouse fibroblasts, counter-screen, dose response (AID 2010); type: functional, cell-based;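 also: cells exposed to compound for about 90 hours before reading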
[9] = viability of HCT116 lacking mutant beta-catenin – cell-based, human colon tumor, dose response (AID 1045); type: functional;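 also: HCT116 colon tumor cells with beta catenin knocked out; cells exposed to compound for 60 hours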
[10] = A549 cell cytotoxicity, dose response, cytotoxicity control, plate reader, cherry-pick, antagonist series (AID 743412); type: functional, cell-based
[11] = blockade of melanocortin 4 receptor signaling – cell-based, plate reader, cherry pick, counter-screen for LGR2 antagonist project, dose response (AID 743444); type: functional;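 also: transfected HEK 293 cells stimulated with alpha-MSH peptide; potency of inhibitors of the alpha-MSH evoked signal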
[12] = target: T4, Short transient receptor potential channel 4 (Mus musculus, UniProt Q9QUQ5); test: block of DAMGO-driven TRPC4 calcium entry – cell-based, HEK293 TRPC4/mu-opioid, Fluo-4 calcium, dose response (AID 434942); type: functional;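 also: potency of inhibitors blocking the TRPC4 calcium response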
T4 sequence (Q9QUQ5 whole entry): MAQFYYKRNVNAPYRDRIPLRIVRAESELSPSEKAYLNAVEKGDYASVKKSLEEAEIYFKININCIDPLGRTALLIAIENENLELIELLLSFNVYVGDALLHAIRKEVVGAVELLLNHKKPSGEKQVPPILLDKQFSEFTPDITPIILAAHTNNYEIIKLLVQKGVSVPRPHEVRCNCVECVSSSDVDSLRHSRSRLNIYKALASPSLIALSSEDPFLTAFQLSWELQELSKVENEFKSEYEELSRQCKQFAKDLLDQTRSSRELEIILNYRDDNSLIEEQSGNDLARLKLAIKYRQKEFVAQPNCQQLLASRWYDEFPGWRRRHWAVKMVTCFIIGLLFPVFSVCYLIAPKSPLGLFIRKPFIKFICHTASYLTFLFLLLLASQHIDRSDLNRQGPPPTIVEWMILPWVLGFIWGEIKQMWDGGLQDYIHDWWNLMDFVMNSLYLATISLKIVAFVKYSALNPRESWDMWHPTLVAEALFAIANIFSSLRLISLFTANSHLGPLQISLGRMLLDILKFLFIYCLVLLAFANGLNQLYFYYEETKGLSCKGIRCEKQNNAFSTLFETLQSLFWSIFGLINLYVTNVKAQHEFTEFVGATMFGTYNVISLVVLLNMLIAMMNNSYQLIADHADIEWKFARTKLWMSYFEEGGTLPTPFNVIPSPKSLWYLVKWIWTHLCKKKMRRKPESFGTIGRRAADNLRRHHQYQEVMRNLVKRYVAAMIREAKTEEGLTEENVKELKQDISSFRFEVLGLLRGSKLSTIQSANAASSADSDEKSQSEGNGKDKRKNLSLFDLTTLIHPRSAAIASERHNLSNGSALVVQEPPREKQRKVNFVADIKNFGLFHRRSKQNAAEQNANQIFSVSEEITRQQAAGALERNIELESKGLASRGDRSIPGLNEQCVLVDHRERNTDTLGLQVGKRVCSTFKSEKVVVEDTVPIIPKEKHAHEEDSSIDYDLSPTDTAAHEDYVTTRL

[13] = target: Luciferin 4-monooxygenase (Photinus pyralis, UniProt P08659); test: inhibition of purified Photinus pyralis luciferase – biochemical, luminescence, dose response (AID 1891)
[14] = Luminescence Cell-Based Dose Confirmation HTS to Identify Inhibitors of Platelet Dense Granule Release. [Related pubchem assays: 1663 (Primary HTS), 1678 (Summary of Project)]; type: functional
[15] = blockers of HIV-1 envelope-mediated cell-cell fusion – cherry-pick, dose response (AID 652057); type: functional, cell-based
[16] = blockers of HIV-1 ZM109 envelope-driven cell-cell fusion – HeLa effector, CEM target cells, luciferase, cherry-pick, dose response (AID 652058); type: functional, cell-based;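 also: luciferase signal from HIV-1 Env mediated cell-cell fusion of effector and target cells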
[17] = off-target signal loss in HeLa-CEM21 co-culture – HeLa F-luc CTL cells, cherry-picked, counter-screen for HIV-1 Env fusion inhibitor project, dose response (AID 652040); type: functional, cell-based;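 also: potency for signal decrease marking cytotoxic or nonspecific inhibition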
[18] = HIV-1 AD8 envelope cell-cell fusion blockers – cherry-pick, dose response (AID 652062); type: functional, cell-based;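 also: luciferase signal from cell-cell fusion driven by HIV-1 clade B AD8 Env; potency is for inhibitors of fusion seen as a drop in luminescence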
[19] = target: Induced myeloid leukemia cell differentiation protein Mcl-1 (Homo sapiens, UniProt Q07820); type: functional
[20] = luciferase reporter signal suppression in cells – H4 neuroglioma cells, luminescence, dose response (AID 1990); type: functional, cell-based
[21] = Luminescence Cell-Based Dose Response HTS to Identify Inhibitors of 5'UTR Stem-Loop Driven Prion Protein mRNA Translation in H4 Neuroglioblastoma Cells. [Related pubchem assays: 1827 (Project Summary), 1813 (Primary HTS)]; type: functional
[22] = alpha-synuclein stem-loop luciferase translation blockers – H4 neuroglioma cells, luminescence, confirmation (AID 1988); type: functional, cell-based

T1 sequence (P49327 whole entry): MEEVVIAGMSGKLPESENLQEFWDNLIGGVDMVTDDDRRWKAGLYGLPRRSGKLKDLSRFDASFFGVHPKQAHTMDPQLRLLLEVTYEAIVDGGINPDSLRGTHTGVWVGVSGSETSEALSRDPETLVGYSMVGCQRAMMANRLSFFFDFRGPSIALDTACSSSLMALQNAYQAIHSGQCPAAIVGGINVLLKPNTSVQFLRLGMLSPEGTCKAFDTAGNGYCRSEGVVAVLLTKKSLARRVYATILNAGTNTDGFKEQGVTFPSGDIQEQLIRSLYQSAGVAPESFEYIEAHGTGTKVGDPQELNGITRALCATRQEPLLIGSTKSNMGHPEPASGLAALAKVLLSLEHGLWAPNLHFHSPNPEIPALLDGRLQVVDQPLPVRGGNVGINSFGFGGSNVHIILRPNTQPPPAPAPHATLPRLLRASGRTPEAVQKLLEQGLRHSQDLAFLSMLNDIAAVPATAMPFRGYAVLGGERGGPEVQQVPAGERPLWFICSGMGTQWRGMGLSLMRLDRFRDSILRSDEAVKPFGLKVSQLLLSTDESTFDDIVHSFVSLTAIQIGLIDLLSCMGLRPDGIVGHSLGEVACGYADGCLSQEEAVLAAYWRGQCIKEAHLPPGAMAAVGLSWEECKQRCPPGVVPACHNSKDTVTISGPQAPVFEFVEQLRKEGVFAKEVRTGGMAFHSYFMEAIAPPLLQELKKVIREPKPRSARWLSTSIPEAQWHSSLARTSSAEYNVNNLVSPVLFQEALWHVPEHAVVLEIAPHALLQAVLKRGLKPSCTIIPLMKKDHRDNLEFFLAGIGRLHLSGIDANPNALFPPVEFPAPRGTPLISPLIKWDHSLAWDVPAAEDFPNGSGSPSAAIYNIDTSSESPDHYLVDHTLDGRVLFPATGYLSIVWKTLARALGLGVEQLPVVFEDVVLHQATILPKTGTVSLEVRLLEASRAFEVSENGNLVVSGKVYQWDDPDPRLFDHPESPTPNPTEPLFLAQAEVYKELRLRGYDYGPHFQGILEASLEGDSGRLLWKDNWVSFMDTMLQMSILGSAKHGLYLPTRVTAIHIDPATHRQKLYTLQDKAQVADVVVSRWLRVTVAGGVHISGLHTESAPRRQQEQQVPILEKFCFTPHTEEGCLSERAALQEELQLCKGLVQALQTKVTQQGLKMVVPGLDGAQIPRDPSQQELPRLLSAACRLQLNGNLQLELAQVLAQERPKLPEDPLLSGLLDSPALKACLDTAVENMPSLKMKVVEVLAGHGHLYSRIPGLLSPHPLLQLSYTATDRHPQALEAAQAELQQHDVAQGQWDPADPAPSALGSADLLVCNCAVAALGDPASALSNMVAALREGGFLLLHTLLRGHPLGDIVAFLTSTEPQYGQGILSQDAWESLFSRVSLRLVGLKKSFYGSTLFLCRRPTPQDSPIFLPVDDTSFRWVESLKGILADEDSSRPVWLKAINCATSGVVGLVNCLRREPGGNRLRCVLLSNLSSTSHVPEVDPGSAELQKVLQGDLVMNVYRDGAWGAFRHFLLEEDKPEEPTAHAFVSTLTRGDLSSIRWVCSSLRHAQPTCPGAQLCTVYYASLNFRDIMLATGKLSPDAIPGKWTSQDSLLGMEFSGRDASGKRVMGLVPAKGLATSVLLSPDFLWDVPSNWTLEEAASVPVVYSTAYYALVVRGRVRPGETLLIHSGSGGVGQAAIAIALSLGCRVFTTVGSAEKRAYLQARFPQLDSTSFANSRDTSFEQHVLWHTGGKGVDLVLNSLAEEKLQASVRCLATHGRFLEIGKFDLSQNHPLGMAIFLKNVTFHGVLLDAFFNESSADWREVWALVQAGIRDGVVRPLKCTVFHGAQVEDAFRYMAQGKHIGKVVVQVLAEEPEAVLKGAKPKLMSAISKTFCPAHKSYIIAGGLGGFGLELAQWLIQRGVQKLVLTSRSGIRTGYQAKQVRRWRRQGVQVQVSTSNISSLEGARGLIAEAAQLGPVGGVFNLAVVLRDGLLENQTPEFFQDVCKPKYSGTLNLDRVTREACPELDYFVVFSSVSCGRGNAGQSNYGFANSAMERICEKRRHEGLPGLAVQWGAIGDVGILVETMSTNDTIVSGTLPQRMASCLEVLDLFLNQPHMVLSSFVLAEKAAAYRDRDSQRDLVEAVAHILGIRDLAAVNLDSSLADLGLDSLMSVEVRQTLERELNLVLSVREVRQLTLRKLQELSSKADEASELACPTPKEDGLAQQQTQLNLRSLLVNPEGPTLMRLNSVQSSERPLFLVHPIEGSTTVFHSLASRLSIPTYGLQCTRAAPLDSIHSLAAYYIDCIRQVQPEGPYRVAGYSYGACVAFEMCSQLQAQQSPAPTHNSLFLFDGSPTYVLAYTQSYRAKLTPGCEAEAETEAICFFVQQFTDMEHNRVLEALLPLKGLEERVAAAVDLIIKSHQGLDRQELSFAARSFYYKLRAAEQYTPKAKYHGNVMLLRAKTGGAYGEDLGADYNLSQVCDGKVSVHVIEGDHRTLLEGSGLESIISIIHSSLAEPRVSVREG
Sequence of Induced myeloid leukemia cell differentiation protein Mcl-1 (Q07820 whole entry): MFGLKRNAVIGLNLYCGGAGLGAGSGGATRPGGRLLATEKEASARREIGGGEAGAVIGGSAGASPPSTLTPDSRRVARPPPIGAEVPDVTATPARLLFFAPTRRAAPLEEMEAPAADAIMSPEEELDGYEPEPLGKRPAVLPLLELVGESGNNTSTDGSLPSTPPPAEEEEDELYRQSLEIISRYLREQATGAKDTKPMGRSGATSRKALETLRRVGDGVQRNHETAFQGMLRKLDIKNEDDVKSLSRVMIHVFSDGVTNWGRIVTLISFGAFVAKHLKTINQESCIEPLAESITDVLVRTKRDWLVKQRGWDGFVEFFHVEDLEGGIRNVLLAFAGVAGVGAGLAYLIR
Sequence of Luciferin 4-monooxygenase (P08659 whole entry): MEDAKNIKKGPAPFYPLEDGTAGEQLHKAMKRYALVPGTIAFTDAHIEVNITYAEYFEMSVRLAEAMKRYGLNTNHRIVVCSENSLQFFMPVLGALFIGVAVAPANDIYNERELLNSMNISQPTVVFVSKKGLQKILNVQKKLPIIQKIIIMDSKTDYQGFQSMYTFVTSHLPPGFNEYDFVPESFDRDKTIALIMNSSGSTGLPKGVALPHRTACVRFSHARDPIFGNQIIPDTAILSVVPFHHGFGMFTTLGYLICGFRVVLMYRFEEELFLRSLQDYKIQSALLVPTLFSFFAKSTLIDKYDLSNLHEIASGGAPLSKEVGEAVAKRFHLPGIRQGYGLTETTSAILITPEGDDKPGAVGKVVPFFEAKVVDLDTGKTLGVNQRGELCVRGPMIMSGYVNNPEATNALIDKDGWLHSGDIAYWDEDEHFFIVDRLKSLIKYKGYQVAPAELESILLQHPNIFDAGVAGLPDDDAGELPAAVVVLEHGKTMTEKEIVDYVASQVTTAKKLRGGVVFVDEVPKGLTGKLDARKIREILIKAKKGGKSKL

O=C(O)CC(NC(=O)CCC1CCCCC1)c1cc([N+](=O)[O-])ccc1Cl (configuration not stated)
IC50 (Fatty acid synthase [1]): 10.7 µM (active)
IC50 (Fatty acid synthase [2]): 8.7 µM (active)

CCCCc1ccc(NC(=O)CSC2=NN3CCCC(=O)N=C3S2)cc1
EC50 [3]: > 300 µM (not active)
EC50 [4]: > 300 µM (not active)
CC50 [5]: > 40 µM (active)

CC(C)CCNC(=O)C(c1ccc(O)cc1)N(Cc1cccs1)C(=O)C1COc2ccccc2O1 (configuration not stated)
EC50 [6]: 1.58 µM (active)
EC50 [7]: 19.5 µM (active)
EC50 [8]: > 60 µM (inconclusive)
EC50 [9]: 21.4 µM (active)
AC50 [10]: > 52 µM (inactive)
AC50 [11]: 35.3 µM (active)

N#CCCSc1nc(N2CCOCC2)c2c(c1C#N)CCCC2
IC50 (Fatty acid synthase [1]): 7.57 µM (active)
IC50 (Fatty acid synthase [2]): 5.49 µM (active)

CCOCCCNCc1cc(Br)ccc1OCc1ccccc1
EC50 [12]: 1.33 µM (active)

COc1ccc(Cl)cc1NC(=O)Nc1cnccn1
EC50 [13]: > 112 µM (not active)
EC50 [14]: > 112 µM (not active)
AC50 [15]: 3.57 µM (active)
AC50 [16]: 37.9 µM (active)
AC50 [17]: 2.19 µM (active)
AC50 [18]: 14.2 µM (active)

O=C(NCc1ccccc1)/C(=C\c1cccc([N+](=O)[O-])c1)NC(=O)c1ccco1
IC50 (Fatty acid synthase [1]): 5.46 µM (active)
IC50 (Fatty acid synthase [2]): 4.06 µM (active)

COc1ccc2nc(Nc3sc4c(c3C(N)=O)CCCC4)sc2c1
IC50 [19]: 8.79 µM (active)

CC(C1CC2CCC1C2)n1c(S)nnc1-c1cccs1 (configuration not stated)
EC50 [12]: 2.66 µM (active)

CNC(=S)N(Cc1ccc(OC)cc1)C1CC(=O)N(c2ccc(Cl)cc2)C1=O (configuration not stated)
IC50 (Fatty acid synthase [1]): 11 µM (active)
IC50 (Fatty acid synthase [2]): 9.36 µM (active)

CCN(CC)S(=O)(=O)c1ccc(N2CCCC2)c(NC(=O)Cc2cc(OC)c(OC)c(OC)c2)c1
AC50 [15]: 3.42 µM (active)
AC50 [16]: 5.2 µM (active)
AC50 [17]: 6.7 µM (active)
AC50 [18]: 7.04 µM (active)

Cc1ccc(-n2nc(-c3cccs3)cc2C(=O)NCC2CCCO2)c(C)c1 (configuration not stated)
EC50 [12]: 4.73 µM (active)

Cc1ccc(Cn2nnnc2CN2CCC(c3nc4cc(Cl)ccc4[nH]3)CC2)cc1
EC50 [20]: 7.23 µM (active)
EC50 [21]: 10.5 µM (active)
EC50 [22]: 2.45 µM (active)
CC50 [5]: 6.84 µM (active)
AC50 [15]: 19.5 µM (active)
AC50 [16]: 2.37 µM (active)
